The values below are quoted from earlier work in patent US20250356984A1 (priority 2022, published 2025).

The structures appear in SMILES notation.

The conditions of this data set: in vivo.

On to `CC(C)c1cccc(C(C)C)c1O` [propofol], for which the “time until target blood concentration is achieved” value is listed as “under a minute”.
